Results from patent US3997518A, “2-Alkyl-4-carboxyalkyl-5-(3,3'-dimethyltriazeno)-imidazoles” (Beecham Group Limited, priority 1970, dated 1976).
Values after ≈ are worked out from the molar mass of the structure shown.

Assays:
[1] = tested on: R1 lymphoma; experiment: Activity against R1 lymphoma, increase in survival time (Table B, slightly different strain); format: in vivo, mice; details: for ILS at 128 mg/kg: 128 mg/kg i.p. daily day 3 to day 7; for ILS at 33 mg/kg: 33 mg/kg i.p. daily day 3 to day 7
Description: (§1) The R1 lymphoma is normally sensitive to anti-metabolites. Typically mice having a transplant of 1.5 × 10^6 tumour cells die from the metastisizing tumour on day 9, 10 or 11 after transplant.
(§2) The compounds illustrated below were dosed by the intra peritoneal route in a vehicle of 10% acetone in arachas oil daily from day 3 to day 7 after tumour transplant. The increase in survival time over control was measured.
(§3) The dose reported is that dose which gave the maximum increase in survival time. Lower doses gave less activity and higher doses are toxic.
(§4) The results are split into two sections (in Table A and Table B) because two slightly different strains of R1 lymphoma were used.

[2] = tested on: R1 lymphoma; experiment: Activity against R1 lymphoma, increase in survival time (Table A); format: in vivo, mice; details: Mus musculus, ip, read-out: Medium % increase in survival time; for ILS at 64 mg/kg: 64 mg/kg i.p. daily day 3 to day 7; for ILS at 33 mg/kg: 33 mg/kg i.p. daily day 3 to day 7; for ILS at 128 mg/kg: 128 mg/kg i.p. daily day 3 to day 7; for ILS at 32 mg/kg: 32 mg/kg i.p. daily day 3 to day 7
Description: as §1, §2, §3, §4

[3] = tested on: ADJ/PC6 plasma cell tumour; experiment: ADJ/PC6 plasma cell tumour, inhibition of tumour weight; format: in vivo, mice; details: i.p. dosing × 5; for ED90: Mus musculus, ADJ/PC6, ip, read-out: ID90 (the source's name); for Therapeutic Index: LD50 compared with ID90
From the text: (§5) The breadth of antitumour spectrum of the compounds of the invention in mice is illustrated by their activity in the ADJ/PC6 plasma cell tumour. This is a solid tumour sensitive to most alkylating agents. Good activity is rarely seen against this tumour and the R1 lymphoma.

[4] = Dose at which 50% of the animals were killed (LD50); design: species or system mice; details: mouse, in vivo, ip; i.p. dosing × 5
From the text: as §5

[5] = tested on: PC 6 tumour; experiment: PC 6 tumour screen; format: in vivo, mice
From the text: as §5
The test of example 91 was repeated using the PC 6 tumour screen.

[6] = tested on: E. Coli; experiment: Antibacterial activity, MIC; format: cell-based; details: Escherichia coli; DST agar + 5% lysed horse blood
From the text: (§6) Compounds of this invention have shown antibacterial activity. Thus the minimum inhibitory concentration (M.I.C.) of 4-carboxyethyl-5-(3,3-dimethyltriazeno)-2-phenylimidazole and the corresponding 2-methylimidazole in DST agar + 5% lysed horse blood are illustrated against the following bacteria.

[7] = tested on: Proteus mirabilis; experiment: Antibacterial activity, MIC; format: cell-based; details: DST agar + 5% lysed horse blood
From the text: as §6

[8] = tested on: Pseudomonas aeroginosa; experiment: Antibacterial activity, MIC; format: cell-based; details: DST agar + 5% lysed horse blood
From the text: as §6

[9] = tested on: Staphylococus aureus; experiment: Antibacterial activity, MIC; format: cell-based; details: DST agar + 5% lysed horse blood
From the text: as §6

[10] = tested on: Friend leukaemia virus; experiment: Friend Leukaemia, inhibition of splenomegally; format: in vivo, mice; details: sub-cutaneously 250 mg/kg/day on day -1, +1, +2 and +3 with respect to infection
From the text: Activity of these compounds has also been shown in Friend Leukaemia. Friend leukaemia virus is a prolonged infection in mice produced splenomegally.

[11] = tested on: Streptococus heamolyticus; experiment: Antibacterial activity, MIC; format: cell-based; details: DST agar + 5% lysed horse blood
From the text: as §6

[12] = tested on: Candida albicans; experiment: Antifungal activity, minimum inhibitory concentration; format: cell-based
From the text: (§7) Antifungal activity has been found in compounds of this invention. Thus 4-carboxyethyl-5-(3,3-dimethyltriazeno)-2-phenylimidazole has the following minimum inhibitory concentrations.

[13] = tested on: Candida neoformans; experiment: as above; format: cell-based
From the text: as §7

[14] = tested on: Trychopyton mentagrophytes; experiment: as above; format: cell-based
From the text: as §7

[15] = Skibba et al., Biochemical Pharmacology, 19, 2043 (1970); cited from earlier work
[16] = Mus musculus, ip, Table B strain, 32 mg/kg i.p. daily day 3 to day 7, dose of maximum increase, read-out: Medium % increase in survival time
[17] = dose at which 90% inhibition of tumour weight occurs
[18] = Mus musculus, ip, Table B strain, dose of maximum increase, read-out: Medium % increase in survival time
[19] = Table A strain, dose of maximum increase

`CCCc1nc(C(=O)OCC)c(N=NN(C)C)[nH]1` [4-Carbethoxy-5-(3,3-dimethyltriazeno)-2-n propyl imidazole] showed an ILS at 32 mg/kg [1, 16] of 130%.
For `CCOC(=O)c1nc(C)n(C)c1N=NN(C)C` [4-Carbethoxy-5-(3,3-dimethyltriazeno-1-2 dimethylimidazole], the “Medium % increase in survival time” value ([1]; Table B strain, 32 mg/kg i.p. daily day 3 to day 7, dose of maximum increase) was 65%.
In the case of `CN(C)N=Nc1[nH]c(-c2ccccc2)nc1C(N)=O` [4-Carboxamido-5-(3,3-dimethyltriazeno)-2-phenylimidazole], the ILS at 50 mg/kg ([2]; Table A strain, 50 mg/kg i.p. daily day 3 to day 7, dose of maximum increase) is reported as 80%, the ED90 [3, 17] is reported as 16 mg/kg and the “Therapeutic Index” value [3] is reported as 15. For the same molecule, the LD50 [4] was 240 mg/kg.
`CCOC(=O)c1nc(S)[nH]c1N=NN(C)C` [4-Carbethoxy-5-(3,3-dimethyltriazeno)-2-mercapto imidazole] showed an ILS at 128 mg/kg [1, 18] of 140%.
`CCOC(=O)c1nc(COc2ccc(OC)cc2)[nH]c1N=NN(C)C` [4-Carbethoxy-5-(3,3-dimethyltriazeno)-2-p-methoxy-phenoxymethylimidazole] showed an ILS at 64 mg/kg [2, 19] greater than 150%.
With `CCOC(=O)c1nc(-c2ccc(OC)cc2)[nH]c1N=NN(C)C` [4-Carboxyethyl-5-(3,3-dimethyltriazeno)-2-(4-methoxyphenyl) imidazole] the ILS at 33 mg/kg [2, 19] was 50%.
For `CCOC(=O)c1nc(-c2ccsc2)[nH]c1N=NN(C)C` [4-Carboxyethyl-5-(3,3-dimethyltriazeno)-2-(3-thienyl) imidazole], the ILS at 33 mg/kg [2, 19] was 200%.
In the case of `CCOC(=O)c1nc(-c2ccc(F)cc2)[nH]c1N=NN(C)C` [4-Carbethoxy-5-(3,3-dimethyltriazeno)-2-(p-fluorophenyl) imidazole], the ED90 [3, 17] is reported as 20 mg/kg, the “Therapeutic Index” value [3] is reported as 10 and the LD50 [4] is reported as 200 mg/kg.
Molecule `CCOC(=O)c1nc(C2CCCCC2)[nH]c1N=NN(C)C` [4-Carbethoxy-5-(3,3-dimethyltriazeno)-2-cyclohexyl imidazole] has an ILS at 21 mg/kg ([1]; Mus musculus, ip, Table B strain, 21 mg/kg i.p. daily day 3 to day 7, dose of maximum increase, read-out: Medium % increase in survival time) of 85%.
Work on `CCOC(=O)c1nc(-c2ccccc2F)[nH]c1N=NN(C)C` [4-Carboxyethyl-5-(3,3-dimethyltriazeno)-2-(2-fluorophenyl) imidazole] yielded an ILS at 10 mg/kg ([2]; Table A strain, 10 mg/kg i.p. daily day 3 to day 7, dose of maximum increase) of 100%.
For `CN(Cc1cnc2nc(N)nc(N)c2n1)c1ccc(C(=O)N[C@@H](CCC(=O)O)C(=O)O)cc1` [Methotrexate, 4-amino-10-methyl folic acid, reference compound], the ILS at 2 mg/kg [2] was 100%, the ILS at 2 mg/kg ([1]; Mus musculus, ip, read-out: Medium % increase in survival time) was 60% and the ID90 [3, 17] was “Inactive”.
`CCOC(=O)c1nc(N(C)C)[nH]c1N=NN(C)C` [4-Carbethoxy-5-(3,3-dimethyltriazeno)-2-dimethylamino imidazole] showed an ILS at 16 mg/kg ([1]; Mus musculus, ip, Table B strain, 16 mg/kg i.p. daily day 3 to day 7, dose of maximum increase, read-out: Medium % increase in survival time) of 45%.
Work on `CCOC(=O)c1nc(-c2cccc(C)c2)[nH]c1N=NN(C)C` [4-Carboxyethyl-5-(3,3-dimethyltriazeno)-2-(3-methyl-phenyl) imidazole] yielded an ILS at 128 mg/kg [2, 19] of 150%.
Molecule `CCOC(=O)c1nc(Cc2ccccc2)[nH]c1N=NN(C)C` [4-Carbethoxy-5-(3,3-di-methyl-triazeno)-2-benzyl imidazole] has an ILS at 64 mg/kg [2, 19] of 200%.
In the case of `Cc1nc(C(N)=O)c(N=NN(C)C)[nH]1` [4-Carboxamido-5-(3,3-dimethyltriazeno)-2-methyl imidazole], the ILS at 128 mg/kg [1, 18] is reported as 60%.
In the case of `CCOC(=O)c1nc(CC)[nH]c1N=NN(C)C` [4-Carbethoxy-5-(3,3-dimethyltriazeno)-2-ethyl imidazole], the ILS at 32 mg/kg [1, 16] is reported as 70%.
In the case of `CCOC(=O)c1nc(-c2cccnc2)[nH]c1N=NN(C)C` [4-Carbethoxy-5-(3,3-dimethyltriazeno)-2-(3-pyridyl)imidazole], the ILS at 32 mg/kg [2, 19] is reported as 170%.
With `CCOC(=O)c1nc(C)[nH]c1N=NN(C)C` [4-Carbethoxy-5-(3,3-dimethyltriazeno)-2-methylimidazole] the ILS at 32 mg/kg [1, 16] was 90%, the “Therapeutic Index” value ([5]; i.p. dosing) was 47 and the “Therapeutic Index” value ([5]; oral dosing) was 40. For the same molecule, the MIC [6] was 15 µg/mL, the MIC [7] was 15 µg/mL and the MIC [8] was 62 µg/mL. For the same molecule, the MIC [9] was 7.5 µg/mL.
Molecule `CCOC(=O)c1nc(-c2ccc(Cl)cc2)[nH]c1N=NN(C)Cc1ccccc1` [4-Carboxyethyl-5-(3-methyl-3-benzyltriazeno)-2-(4-chlorophenyl)imidazole] has an ILS at 100 mg/kg ([2]; Table A strain, 100 mg/kg i.p. daily day 3 to day 7, dose of maximum increase) of 40%.
For `CCOC(=O)c1nc(-c2ccccc2)[nH]c1N=NN(C)C` [4-Carbethoxy-5-(3,3-dimethyl-triazeno)-2-phenyl imidazole], the ILS at 32 mg/kg [2, 19] was 300%, the ILS at 33 mg/kg [1, 18] was 65% and the ED90 [3, 17] was 3.5 mg/kg. For the same molecule, the “Therapeutic Index” value [3] was 88, the LD50 [4] was 310 mg/kg and the “Therapeutic Index” value ([5]; i.p. dosing) was 27. The “Therapeutic Index” value ([5]; oral dosing) was 11, the “inhibition of the splenomegally” value [10] was “complete inhibition of the splenomegally” and the MIC [9] was 10 µg/mL. The MIC [11] was 1 µg/mL, the MIC [12] was 10 µg/mL (≈ 34.8 µM) and the MIC [13] was 10 to 50 µg/mL (≈ 34.8 to 174 µM). For the same molecule, the MIC [14] was 10 µg/mL (≈ 34.8 µM).
With `COC(=O)c1nc(-c2ccccc2)[nH]c1N=NN(C)C` the ILS at 16 mg/kg ([2]; Table A strain, 16 mg/kg i.p. daily day 3 to day 7, dose of maximum increase) was 400%.
`COC(=O)c1nc(S)[nH]c1N=NN(C)C` [4-Carbmethoxy-5-(3,3-dimethyltriazeno)-2-mercapto imidazole] showed an ILS at 32 mg/kg [1, 16] of 90%.
`CCOC(=O)c1nc(-c2ccc(OC)c(OC)c2)[nH]c1N=NN(C)C` [4-Carboxyethyl-5-(3,3-dimethyltriazeno)-2-(3,4-dimethoxy-phenyl) imidazole] gave an ILS at 33 mg/kg [2, 19] of 200%.
`CN(C)N=Nc1[nH]c(-c2cccs2)nc1C(N)=O` [4-Carboxamido-5-(3,3-dimethyltriazeno)-2-(2-thienyl)imidazole] showed an ILS at 128 mg/kg [2, 19] of 50%.
With `CN(C)N=Nc1[nH]cnc1C(N)=O` [DIC, 4-Carboxamide-5-(3,3-dimethyltriazeno)imidazole, reference compound] the ILS at 32 mg/kg [2, 19] was 300%, the ILS at 33 mg/kg [1, 18] was 60% and the “Therapeutic Index” value ([5]; i.p. dosing) was 33. For the same molecule, the “Therapeutic Index” value ([5]; oral dosing) was 24 and the degradation in man [15] was “degraded substantially to AIC”.
For `CCOC(=O)c1nc(COc2ccccc2)[nH]c1N=NN(C)C` [4-Carbethoxy-5-(3,3-dimethyltriazeno)-2-phenoxymethyl imidazole], the ILS at 64 mg/kg [2, 19] was 85%.
Work on `CCOC(=O)Cc1nc(C(=O)OCC)c(N=NN(C)C)[nH]1` [4-Carbethoxy-5-(3,3-dimethyltriazeno)-2-carbethoxymethyl imidazole] yielded an ILS at 64 mg/kg [2, 19] of 400%.
For `CCOC(=O)c1nc(-c2ccc3ccccc3c2)[nH]c1N=NN(C)C` [4-Carboxyethyl-5-(3,3-dimethyltriazeno)-2-(2-naphthyl) imidazole], the ILS at 128 mg/kg [2, 19] was 170%.
